Results as given in patent US20220145295A1, “ENZYMATIC RNA SYNTHESIS” (President and Fellows of Harvard College, priority 2018, published 2022).
One block for each compound: values may come before it.

Assays:
Format in all cases: biochemical
[1] = target: T1, S. cerevisiae poly(A) polymerase (Saccharomyces cerevisiae, UniProt P29468); test: Modified nucleotide incorporation by S. cerevisiae poly(A) polymerase, denaturing gel electrophoresis; conditions: 37° C., 60 minutes; for incorporation by S. cerevisiae poly(A) polymerase: 2.5 mM modified nucleotide, 0.5 mM Mn^2+, 900 units enzyme
T1 construct: purchased Thermo 74225Z25KU
Procedure: FIGS. 4A and 4B. […] All 2′-modified ribonucleotides were at a final concentration of 2.5 mM and incubated at 37° C. for 60 minutes. The control reaction consisted of all reaction components except nucleotide. […] The negative reaction consisted of all reaction components except nucleotide.
The efficiency of S. cerevisiae poly(A) polymerase (Thermo 74225Z25KU) for incorporating of several 2′-modified was evaluated. The modified nucleotides evaluated included the following: 2′-F-rATP (Trilink N-1007), 2′-Azido-rATP (Trilink N-1045), 2′-Amino-rATP (Trilink N-1046), and 2′-O-Methyl rATP (Trilink N-1015). Extension reactions were supplemented with the appropriate buffers, which included 0.5 mM Mn^2+, 200 pmol of the initiator RNA oligonucleotide, 2.5 mM modified nucleotide, and 900 units of enzyme. Reactions were incubated at 37° C. for 60 minutes before being analyzed with denaturing gel electrophoresis. According to the gel (FIG. 4A), under these reactions conditions S. cerevisiae poly(A) polymerase incorporates all 2′-modified nucleotides (2′-Amino-, 2′-O-Methyl-, 2′-F-, and 2′-Azido-rATP). […] Under the same reaction conditions, the reversible terminator nucleoside triphosphate, 2′-O-allyl-rATP, was tested for controlled incorporation by S. cerevisiae poly(A) polymerase.

[2] = target: T2, N-terminus His^6-tagged S. pombe poly(U) polymerase (Schizosaccharomyces pombe, UniProt O13833); test: Activity of expressed N-terminus His6-tagged S. pombe poly(U) polymerase with 2′-O-allyl-ATP; conditions: 1 mM nucleotide, approximately 100 pmol of initiator oligonucleotide, 10 μL, 30 seconds at 37° C.
T2 construct: made in house; host or cells: E. coli (T7 Express)
T2 sequence (O13833 1-405): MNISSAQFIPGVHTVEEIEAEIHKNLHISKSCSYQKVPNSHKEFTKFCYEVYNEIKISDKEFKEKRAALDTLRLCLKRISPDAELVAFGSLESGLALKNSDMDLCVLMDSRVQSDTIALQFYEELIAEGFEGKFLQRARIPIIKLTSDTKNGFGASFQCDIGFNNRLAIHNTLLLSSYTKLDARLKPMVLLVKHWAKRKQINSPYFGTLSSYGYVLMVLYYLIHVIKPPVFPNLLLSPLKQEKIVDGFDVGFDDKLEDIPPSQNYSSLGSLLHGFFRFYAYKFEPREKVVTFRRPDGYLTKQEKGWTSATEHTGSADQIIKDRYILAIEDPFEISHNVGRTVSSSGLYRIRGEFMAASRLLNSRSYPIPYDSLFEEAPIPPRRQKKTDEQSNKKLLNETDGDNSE
Procedure: FIGS. 13A and 13B. […] The expected molecular weight of the expressed N-terminus His^6-tagged S. pombe poly(U) polymerase is approximately 45 kDa. […] Reactions were supplemented with increasing amounts of initiator oligonucleotide (from 20 pmol to 1000 pmol) to determine the relative conversion rates as a function of initiator oligonucleotide material as performed by concentrated N-terminus His^6-tagged S. pombe poly(U) polymerase. All reaction volumes were 10 μL, the initiator oligonucleotide was a poly-rU-15-mer labeled with a 5′-Cy5 fluorophore. Reactions were incubated at 37° C. for 30 seconds. The control reaction contained all reaction components (initiator oligonucleotide was 20 pmol) with the exception of reversible terminator nucleotide.
The primary sequence for S. pombe poly(U) polymerase (UniProtKB—O13833) was modified by adding the amino acids “[…]” to the N-terminus of the enzyme. These amino acids encode for an N-terminus His^6-tag with the appropriate linkers. Using the protocol outlined in the material and methods section, N-terminus His^6-tagged S. pombe poly(U) polymerase was expressed, purified, and concentrated to a small volume. […] Using the N-terminus His^6-tagged S. pombe poly(U) polymerase, it was determined that approximately 100 pmol of initiator oligonucleotide can be converted to the (+1) product with a conversion rate of >99% (FIG. 13B). […]

[3] = target: T3, S. pombe poly(U) polymerase (Schizosaccharomyces pombe, UniProt O13833); test: Controlled (n+1) extension with reversible terminator nucleotides by S. pombe poly(U) polymerase; conditions: 37° C.
T3 sequence (O13833 1-405): T2 sequence (O13833 1-405)

[4] = target: T4, S. pombe Cid1 poly(U) polymerase (Schizosaccharomyces pombe, UniProt O13833); test: Uncontrolled extension with natural and modified nucleotides by S. pombe Cid1 poly(U) polymerase (gel, RNA kinetic assay); conditions: for effect of inorganic pyrophosphatase supplementation on RNA synthesis by poly(U) polymerase: 1 mM ribonucleotide, 0.1 units Yeast Inorganic Pyrophosphatase; for incorporation of natural ribonucleotides by poly(U) polymerase: 1.0 mM nucleotide, 5′-Cy5-poly rU-15-mer, 37° C., 30 minutes, gel and RNA kinetic assay
T4 construct: purchased NEB M0337
T4 sequence (O13833 1-405): T2 sequence (O13833 1-405)

[5] = target: T3, S. pombe poly(U) polymerase; test: RNA synthesis by S. pombe poly(U) polymerase with competitive inhibitor (non-hydrolyzable) nucleotide; conditions: with UTP, 30 minutes at 37° C.
[6] = target: T5, Human polymerase μ R387K (Homo sapiens, UniProt Q9NP87, R387K); test: dATP / rATP incorporation by polymerase μ R387K, denaturing gel electrophoresis; conditions: 0.25 mM Mn^2+ and Mg^2+; for incorporation by polymerase μ R387K: poly dT-15-mer initiator
T5 construct: His-tag (pET-28c vector); made in house; host or cells: E. coli (T7 Express)
Procedure: FIGS. 3A to 3C. […] Denaturing gel electrophoresis analysis of dATP incorporation (FIG. 3B) and rATP incorporation (FIG. 3C) at nucleotide concentrations of 200-50 μM and 5.0-0.62 mM for dATP and rATP, respectively. These reactions were supplemented with 0.25 mM Mn^2+ and Mg^2+. The control reaction consisted of all reaction components except nucleotide. For all reactions, the initiator oligonucleotide was a HPLC-purified poly dT-15-mer.
Human polymerase μ R387K was expressed and purified as described in the materials and methods. Because it was unknown under which reaction conditions polymerase μ R387K functioned optimally, several reaction parameters were initially evaluated. […] Thus, polymerase p R387K, a confirmed DNA/RNA-directed polymerase, is useful for controlled enzymatic RNA synthesis.

T5 sequence (Q9NP87 whole entry R387K): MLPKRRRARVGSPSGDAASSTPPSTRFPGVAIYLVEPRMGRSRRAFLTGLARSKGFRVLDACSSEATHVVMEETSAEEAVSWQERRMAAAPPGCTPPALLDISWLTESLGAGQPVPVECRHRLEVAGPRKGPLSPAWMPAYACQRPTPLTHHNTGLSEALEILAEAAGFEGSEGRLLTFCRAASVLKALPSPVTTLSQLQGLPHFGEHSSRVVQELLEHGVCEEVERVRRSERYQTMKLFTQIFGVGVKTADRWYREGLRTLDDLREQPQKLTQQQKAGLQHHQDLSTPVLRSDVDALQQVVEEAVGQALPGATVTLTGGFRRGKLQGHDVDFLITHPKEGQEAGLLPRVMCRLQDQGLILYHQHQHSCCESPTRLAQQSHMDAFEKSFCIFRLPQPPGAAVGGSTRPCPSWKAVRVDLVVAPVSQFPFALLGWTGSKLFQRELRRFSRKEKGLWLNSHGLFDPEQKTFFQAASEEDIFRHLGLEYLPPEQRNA
T1 sequence (P29468 whole entry): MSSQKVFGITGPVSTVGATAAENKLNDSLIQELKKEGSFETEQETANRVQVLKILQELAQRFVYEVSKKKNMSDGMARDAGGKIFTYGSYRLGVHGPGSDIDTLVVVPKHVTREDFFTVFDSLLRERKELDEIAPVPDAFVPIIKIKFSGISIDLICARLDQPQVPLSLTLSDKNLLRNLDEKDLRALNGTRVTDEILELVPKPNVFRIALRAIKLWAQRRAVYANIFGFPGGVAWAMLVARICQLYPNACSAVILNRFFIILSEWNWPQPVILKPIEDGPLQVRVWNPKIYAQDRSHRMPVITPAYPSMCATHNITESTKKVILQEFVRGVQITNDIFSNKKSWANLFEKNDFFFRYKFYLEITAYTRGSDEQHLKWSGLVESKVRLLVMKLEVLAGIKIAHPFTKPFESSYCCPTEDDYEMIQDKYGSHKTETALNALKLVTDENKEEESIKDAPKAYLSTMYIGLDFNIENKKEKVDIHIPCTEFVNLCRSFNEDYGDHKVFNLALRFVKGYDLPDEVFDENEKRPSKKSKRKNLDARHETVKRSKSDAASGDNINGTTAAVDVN

SMILES: Nc1ncnc2c1ncn2[C@@H]1O[C@H](COP(=O)(O)OP(=O)(O)OP(=O)(O)O)[C@@H](O)[C@H]1N [2′-Amino-rATP, 2′-amino-2′-deoxyadenosine-5′-triphosphate]
incorporation by S. cerevisiae poly(A) polymerase [1]: incorporates

SMILES: [N-]=[N+]=N[C@@H]1[C@H](O)[C@@H](COP(=O)(O)OP(=O)(O)OP(=O)(O)O)O[C@H]1n1cnc2c(N)ncnc21 [2′-Azido-rATP, 2′-azido-2′-deoxyadenosine-5′-triphosphate]
incorporation by S. cerevisiae poly(A) polymerase [1]: incorporates

SMILES: Nc1ncnc2c1ncn2[C@@H]1O[C@H](COP(=O)(O)OP(=O)(O)OP(=O)(O)O)[C@@H](O)[C@H]1F [2′-F-rATP, 2′-fluoro-2′-deoxyadenosine-5′-triphosphate]
incorporation by S. cerevisiae poly(A) polymerase [1]: incorporates

SMILES: CO[C@@H]1[C@H](O)[C@@H](COP(=O)(O)OP(=O)(O)OP(=O)(O)O)O[C@H]1n1cnc2c(N)ncnc21 [2′-O-Methyl rATP, 2′-O-methyladenosine-5′-triphosphate]
incorporation by S. cerevisiae poly(A) polymerase [1]: incorporates

SMILES: C=CCO[C@@H]1[C@H](O)[C@@H](COP(=O)(O)OP(=O)(O)OP(=O)(O)O)O[C@H]1n1cnc2c(N)ncnc21 [2′-O-allyl-ATP]
controlled incorporation by S. cerevisiae poly(A) polymerase ([1]; nucleoside triphosphate 250 μM to 4000 μM): positive (n+1) incorporation | conversion rate to the (+1) product [2]: > 99% | incorporation of reversible terminator by poly(U) polymerase ([3]; 1 mM, 30 minutes, initiator extended by one base): incorporated only a single | conversion rate of initiator (+0) to extension product (+1) ([3]; optimized conditions, 0.5 minutes): > 99% | time required to fully convert the initiator oligonucleotide (+0) to extension product (+1) ([3]; optimized conditions, poly-rU-15-mer 5′-Cy5): less than or equal to 0.5 minutes

SMILES: O=c1[nH]cc([C@@H]2O[C@H](COP(=O)(O)OP(=O)(O)OP(=O)(O)O)[C@@H](O)[C@H]2O)c(=O)[nH]1 [Pseudouridine, pseudouridine-5′-triphosphate]
length of RNA oligonucleotides produced ([4]; 2 mM, 1 mM, or 0.5 mM nucleotide, 0.1 units PPi-ase, 30 minutes at 37° C.): 30-45 nt

SMILES: Nc1ncnc2c1ncn2[C@@H]1O[C@H](COP(=O)(O)OP(=O)(O)OP(=O)(O)O)[C@@H](O)[C@H]1O [rATP]
effect of inorganic pyrophosphatase supplementation on RNA synthesis by poly(U) polymerase ([4]; 30 minutes at 37° C.): greatest enhancement | nucleotide concentration needed to produce a response similar to 200 μM of dATP [6]: 5 mM | incorporation by polymerase μ R387K [6]: can incorporate

Second part, led by results:

concentrations having little effect on controlling the RNA synthesis reaction [5]: below 0.8 mM
SMILES: O=c1ccn([C@@H]2O[C@H](COP(=O)(O)NP(=O)(O)OP(=O)(O)O)[C@@H](O)[C@H]2O)c(=O)[nH]1 [Uridine-5′-[(α,β)-imido]triphosphate]
effect of higher concentrations of non-hydrolyzable ribonucleotide on rUTP incorporation [5]: significantly limited the total number of hydrolyzable rUTP incorporations

incorporation by polymerase μ R387K [6]: can incorporate
SMILES: Nc1ncnc2c1ncn2[C@H]1C[C@H](O)[C@@H](COP(=O)(O)OP(=O)(O)OP(=O)(O)O)O1 [dATP]

incorporation of natural ribonucleotides by poly(U) polymerase [4]: has activity | effect of inorganic pyrophosphatase supplementation on RNA synthesis by poly(U) polymerase ([4]; 30 minutes at 37° C.): minimally affected
SMILES: Nc1ccn([C@@H]2O[C@H](COP(=O)(O)OP(=O)(O)OP(=O)(O)O)[C@@H](O)[C@H]2O)c(=O)n1 [rCTP]

incorporation of natural ribonucleotides by poly(U) polymerase [4]: has activity | effect of inorganic pyrophosphatase supplementation on RNA synthesis by poly(U) polymerase ([4]; 30 minutes at 37° C.): minimally affected
SMILES: Nc1nc2c(ncn2[C@@H]2O[C@H](COP(=O)(O)OP(=O)(O)OP(=O)(O)O)[C@@H](O)[C@H]2O)c(=O)[nH]1 [rGTP]

effect of inorganic pyrophosphatase supplementation on RNA synthesis by poly(U) polymerase ([4]; 30 minutes at 37° C.): greatest enhancement
SMILES: O=c1ccn([C@@H]2O[C@H](COP(=O)(O)OP(=O)(O)OP(=O)(O)O)[C@@H](O)[C@H]2O)c(=O)[nH]1 [rUTP]
